Measurements from ChEMBL document CHEMBL1125141, “Structure-activity relationships of N2-substituted guanines as inhibitors of HSV1 and HSV2 thymidine kinases” (J Med Chem, 1990).

Molecular target: T1, Thymidine kinase (Human alphaherpesvirus 1, UniProt Q9QNF7)
T1 sequence (Q9QNF7 whole entry): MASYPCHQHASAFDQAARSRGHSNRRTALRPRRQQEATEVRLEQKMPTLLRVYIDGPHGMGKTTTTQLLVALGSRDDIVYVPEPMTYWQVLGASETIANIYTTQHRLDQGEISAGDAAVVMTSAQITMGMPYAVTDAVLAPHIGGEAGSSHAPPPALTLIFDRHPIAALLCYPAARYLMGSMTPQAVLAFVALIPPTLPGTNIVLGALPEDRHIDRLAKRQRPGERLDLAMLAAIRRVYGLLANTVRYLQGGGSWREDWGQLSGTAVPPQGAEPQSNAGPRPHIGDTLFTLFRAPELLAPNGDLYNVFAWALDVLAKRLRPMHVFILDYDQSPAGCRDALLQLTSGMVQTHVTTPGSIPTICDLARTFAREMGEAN
Assay: Inhibition of TdR phosphorylation using thymidine kinase assay for herpes simplex virus type 1
Format: functional

| SMILES | IC50 |
| --- | --- |
| O=c1[nH]c(Nc2cccc(C(F)(F)F)c2)nc2nc[nH]c12 | 0.15 µM |
| CCCCc1ccc(Nc2nc3nc[nH]c3c(=O)[nH]2)cc1 | 50 µM |
| Oc1[nH]c(Nc2ccc(Br)c(Br)c2)nc2ncnc1-2 | 3 µM |
| Oc1[nH]c(Nc2cccc(Cl)c2)nc2ncnc1-2 | 1.3 µM |
| O=c1nc(Nc2cccc(CO)c2)[nH]c2nc[nH]c12 | 25 µM |
| Oc1[nH]c(Nc2ccc(Br)cc2)nc2ncnc1-2 | 1 µM |
| O=c1[nH]c(NCc2ccc(Cl)cc2)nc2nc[nH]c12 | 8.5 µM |
| Oc1[nH]c(Nc2ccc3ccccc3c2)nc2ncnc1-2 | 40 µM |
| OCCCCCNc1nc(O)c2[nH]cnc2n1 | 100 µM |
| Oc1[nH]c(Nc2ccc(F)c(Cl)c2)nc2ncnc1-2 | 8 µM |
| O=c1[nH]c(Nc2ccc(O)cc2)nc2nc[nH]c12 | 140 µM |
| O=c1[nH]c(Nc2ccc(F)c(F)c2)nc2nc[nH]c12 | 50 µM |
| CCCCCCNc1nc(O)c2[nH]cnc2n1 | 55 µM |
| Cc1ccc(Nc2nc3nc[nH]c3c(=O)[nH]2)cc1 | 50 µM |
| Oc1[nH]c(Nc2ccc(C(F)(F)F)cc2)nc2ncnc1-2 | 30 µM |
| CCc1cccc(Nc2nc3nc[nH]c3c(=O)[nH]2)c1 | 2.5 µM |

Molecular target: T1, Thymidine kinase
Assay: Inhibition of TdR phosphorylation using thymidine kinase (TK) assay for herpes simplex virus type 1 (HSV-1).
Format: functional

| SMILES | Ki |
| --- | --- |
| CCCCCCNC1=NC(=O)C2N=CN([C@H]3C[C@H](O)[C@@H](CO)O3)C2=N1 (some centres not stated) | 2600 nM |
